{"source": "patent US20210355107A1", "about": "“MULTI-SUBSTITUTED PYRIDONE DERIVATIVES AND MEDICAL USE THEREOF” (Beijing Yuezhikangtai Biomedicines Co., Ltd., priority 2018, published 2021)", "key": {"EBC-1 cells": {"tested_on": "EBC-1 cells", "test": "EBC-1 cell proliferation, CellTiter-Glo Luminescent Cell Viability Assay", "format": "cell-based", "details": "Homo sapiens, 72 h incubation, read-out: IC50 (nM) against EBC-1 cells", "description": "Test Example 3: Inhibitory Activity of Compounds disclosed herein against EBC-1 Cells\nTest method: the inhibitory activity of the compounds against EBC-1 cell proliferation was evaluated using CellTiter-Glo® Luminescent Cell Viability Assay Kit (Promega).\nTest procedures: when thawing EBC-1 cells, the cell cryopreservation tube was shaken rapidly in a water bath at 37° C. to thaw the cells in 1 min. The cell suspension after thawing was mixed with RPMI1640 culture medium containing 10% FBS and centrifuged for 5 min at 1000 rpm, and the supernatant was discarded. The cell pellet was suspended in 5 mL of complete culture medium. The suspension was placed in a cell culture flask with a bottom area of 25 cm^2, and cultured in a cell incubator at 37° C./95% humidity/5% CO2. Cell passage was performed when cell confluence reached about 80%. When the cells were passaged, the original cell suspension was directly made uniform by pipetting. 1/6 of the cell suspension was kept, added with 5 mL of new complete culture medium and then made uniform by pipetting. The cell culture flask was then placed in a cell incubator for further culturing. Cell plating was performed when the cell confluence reached about 80% again. With reference to the method for cell passage, 1/6 cell suspension was kept for further culturing when the cells were plated, and the remaining 5/6 of cell suspension was placed in a 15 mL centrifuge tube. Cell viability was detected by trypan blue exclusion using an IC1000 cell counter (Countstar) to ensure that cell viability was above 90%. Cell suspension at a density of 3.33×10^4 viable cells/mL was prepared using complete culture medium, and 90 μL of the cell suspension was added into 96-well cell culture plates, so that the cell density in the cell culture plates (day 0 plate and test compound plate) was 3000 viable cells/well. A control group that contains no cell or compound but only complete culture medium and a control group that contains no compound but cells were set. The cell plates were incubated overnight in a cell incubator. […] 10 μL of the above solution was added into a corresponding cell culture plate to ensure that the initial concentration of the compound was 10 μM, the dilution factor of adjacent concentration was 3.16, and the DMSO content in the cell culture plate was 0.1%. The cell plates were then incubated in the cell incubator for 72 h. During detection, CellTiter-Glo reagent (namely CellTiter-Glo® […] cell viability test reagent, Promega, Cat. No. G7572, Lot. No. 0000310975) was melted, and the cell plate was equilibrated at room temperature for 30 min. The cell plate was added with the CellTiter-Glo reagent at 100 μL per well, and then shaken on a QB-9001 microporous quick shaker (Kylin-Bell) for 5 min to fully lyse the cells. The cell plate was left to stand at room temperature for 20 min to stabilize luminescence signals, and the luminescence value of each well was scanned by a Spectramax M3 multi-functional microplate reader (Molecular Devices) at full wavelength.\nTest samples: example compounds of the present invention and cabozantinib (positive control compound).\nData analysis: cell viability was calculated for compounds at various concentrations using the following formula:\nCell viability(%)=(Lumtest compound−Lumculture solution control)/(Lumcell control−Lumculture solution control)×100%,\nwhere Lum refers to the luminescence value of each well of the test compound plate read by the multi-functional microplate reader.\nThe data were analyzed using GraphPad Prism 7.0 software, fitted with nonlinear S-curve regression to give dose-response curves, and IC50 values were calculated therefrom."}, "kinase c-MET": {"molecular_target": "T1, kinase c-MET (Homo sapiens, UniProt P08581)", "T1 construct": "purchased Carna 08-151", "T1 sequence (P08581 956-1390 limits assumed)": "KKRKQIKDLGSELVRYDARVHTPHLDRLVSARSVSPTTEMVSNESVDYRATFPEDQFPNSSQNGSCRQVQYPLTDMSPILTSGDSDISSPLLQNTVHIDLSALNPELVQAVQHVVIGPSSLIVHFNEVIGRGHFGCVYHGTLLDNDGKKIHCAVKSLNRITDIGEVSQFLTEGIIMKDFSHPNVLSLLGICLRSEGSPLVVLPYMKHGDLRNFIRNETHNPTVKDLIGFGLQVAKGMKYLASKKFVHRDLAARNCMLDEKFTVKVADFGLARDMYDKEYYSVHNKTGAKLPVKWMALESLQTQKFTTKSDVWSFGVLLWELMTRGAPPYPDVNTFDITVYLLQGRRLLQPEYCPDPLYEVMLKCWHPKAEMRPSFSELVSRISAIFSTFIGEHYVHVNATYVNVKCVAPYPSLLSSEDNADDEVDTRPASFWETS", "test": "Mobility shift assay, inhibitory activity against kinase c-MET", "format": "biochemical", "details": "ATP at Km (35 μM), average of two independent experiments"}, "[1]": {"tested_on": "human non-small cell lung cancer tumor cell strain EBC-1", "test": "In vivo anti-tumor activity in model mice with ectopically grafted EBC-1 tumor cells", "details": "EBC-1 subcutaneous tumors in BALB/c-nude mice; 30 mg/kg intragastric once daily for 28 days; FIG. 1", "description": "(§1) Test Example 5: In Vivo Anti-Tumor Activity of Compounds disclosed herein in Model Mice with Ectopically Grafted Tumor Cells\n(§2) 3×10^6 cells of human non-small cell lung cancer tumor cell strain EBC-1 (ATCC) were inoculated subcutaneously into BALB/c-nude model mice (Beijing AniKeeper Biotech, 10 female mice). When the subcutaneous tumors in mice each grew to 175.5 mm^3, the mice were administered intragastrically with test samples.\nThe mice were divided into a negative control group and an example compound group (compound of Example 3) (30 mg/kg) with 5 mice per group. The mice in the negative control group were administered with 10% solutol HS-15, which was prepared by adding 10 mL of solutol HS-15 to 90 mL of ddH2O and then mixing well by vortexing. […]\nAfter the start of the administration, the body weight and tumor size of each mice were measured twice a week. […]\nThe anti-tumor efficacy was evaluated based on the growth curve of the tumor (i.e., tumor volume per measurement versus its treatment days) and relative tumor volume during treatment. The relative tumor inhibition (TGI) was calculated according to the following formula: […]\nRelative tumor volume RTV was calculated as follows: RTV=[…], where V0 is the tumor volume of the animal at the time of grouping, and Vt is the tumor volume of the animal after treatment."}, "[2]": {"test": "Body weight of EBC-1 tumor-bearing mice during treatment", "format": "in vivo", "details": "EBC-1 BALB/c-nude mice; 30 mg/kg intragastric once daily for 28 days; FIG. 2", "description": "as §1, §2\nThe mice were divided into a negative control group and an example compound group (compound of Example 3) (30 mg/kg) with 5 mice per group. The mice in the negative control group were administered with 10% solutol HS-15, which was prepared by adding 10 mL of solutol HS-15 to 90 mL of ddH2O and then mixing well by vortexing. The mice in the example compound group were administered with a compound solution at a concentration of […] which was prepared by dissolving the compound of Example 3 in 10% solutol HS-15. The mice in both the solvent control group and the example compound group were subjected to intragastric administration once daily for 28 days at a dosage of 10 μL per gram of body weight.\nAfter the start of the administration, the body weight and tumor size of each mice were measured twice a week. The calculation formula for tumor size is as follows: […]"}}}
{"compound": "CC(C)n1cc(C(=O)Nc2ccc(-c3cc(-c4cnn(C)c4)cnc3N)c(F)c2)c(=O)c(-c2ccc(F)cc2)c1C#N", "note": "[Example 4, N-(4-(2-amino-5-(1-methyl-1H-pyrazol-4-yl)pyridin-3-yl)-3-fluorophenyl)-6-cyano-5-(4-fluorophenyl)-1-isopropyl-4-oxo-1,4-dihydropyridine-3-carboxamide]", "values": [{"measurement": "IC50", "setting": "EBC-1 cells", "value": 30, "unit": "nM"}, {"measurement": "IC50", "setting": "kinase c-MET", "value": 3, "unit": "nM"}]}
{"compound": "CCn1cc(-c2cnc(N)c(-c3ccc(NC(=O)c4cn(C(C)C)c(C#N)c(-c5ccc(F)cc5)c4=O)cc3F)c2)cn1", "note": "[Example 3, N-(4-(2-amino-5-(1-ethyl-1H-pyrazol-4-yl)pyridin-3-yl)-3-fluoro-phenyl)-6-cyano-5-(4-fluorophenyl)-1-isopropyl-4-oxo-1,4-dihydropyridine-3-carboxamide]", "values": [{"measurement": "IC50", "setting": "EBC-1 cells", "value": 22, "unit": "nM"}, {"measurement": "tumor growth inhibition (TGI)", "setting": "[1]", "value": "up to 108%"}, {"measurement": "IC50", "setting": "kinase c-MET", "value": 30, "unit": "nM"}, {"measurement": "body weight change of tumor-bearing mice", "setting": "[2]", "value": "does not change significantly"}]}
{"compound": "CC(C)n1cc(C(=O)Nc2ccc(-c3cc(-c4cnn(C5CCNCC5)c4)cnc3N)c(F)c2)c(=O)c(-c2ccc(F)cc2)c1C#N", "note": "[Example 2, N-(4-(2-amino-5-(1-(piperidin-4-yl)-1H-pyrazol-4-yl)pyridin-3-yl)-3-fluorophenyl)-6-cyano-5-(4-fluorophenyl)-1-isopropyl-4-oxo-1,4-dihydropyridine-3-carboxamide]", "values": [{"measurement": "IC50", "setting": "EBC-1 cells", "value": 24, "unit": "nM"}, {"measurement": "IC50", "setting": "kinase c-MET", "value": 14, "unit": "nM"}]}
{"compound": "COc1cc2nccc(Oc3ccc(NC(=O)c4cn(C(C)C)c(C#N)c(-c5ccc(F)cc5)c4=O)cc3F)c2cc1OC", "note": "[Example 24, 6-cyano-N-(4-((6,7-dimethoxyquinolin-4-yl)oxy)-3-fluoro-phenyl)-5-(4-fluorophenyl)-1-isopropyl-4-oxo-1,4-dihydropyridine-3-carboxamide]", "values": [{"measurement": "IC50", "setting": "EBC-1 cells", "value": 45, "unit": "nM"}]}
{"compound": "CCn1cc(-c2cnc(N)c(-c3ccc(NC(=O)c4cn(C5CC5)c(C#N)c(-c5ccc(F)cc5)c4=O)cc3F)c2)cn1", "note": "[Example 10, N-(4-(2-amino-5-(1-ethyl-1H-pyrazol-4-yl)pyridin-3-yl)-3-fluorophenyl)-6-cyano-5-(4-fluorophenyl)-1-cyclopropyl-4-oxo-1,4-dihydropyridine-3-carboxamide]", "values": [{"measurement": "IC50", "setting": "EBC-1 cells", "value": 208, "unit": "nM"}, {"measurement": "IC50", "setting": "kinase c-MET", "value": 23, "unit": "nM"}]}
{"compound": "CC(C)n1cc(C(=O)Nc2ccc(-c3cc(-c4cnn(C5CCN(C)CC5)c4)cnc3N)c(F)c2)c(=O)c(-c2ccc(F)cc2)c1C#N", "note": "[Example 7, N-(4-(2-amino-5-(1-(1-methylpiperidin-4-yl)-1H-pyrazol-4-yl)-pyridin-3-yl)-3-fluorophenyl)-6-cyano-5-(4-fluorophenyl)-1-isopropyl-4-oxo-1,4-dihydro-pyridine-3-carboxamide]", "values": [{"measurement": "IC50", "setting": "EBC-1 cells", "value": 27, "unit": "nM"}]}
{"compound": "CC(C)n1cc(C(=O)Nc2cc(F)c(-c3cc(-c4cnn(C)c4)cnc3N)cc2F)c(=O)c(-c2ccc(F)cc2)c1C#N", "note": "[Example 6, N-(4-(2-amino-5-(1-methyl-1H-pyrazol-4-yl)pyridin-3-yl)-2,5-difluorophenyl)-6-cyano-5-(4-fluorophenyl)-1-isopropyl-4-oxo-1,4-dihydropyridine-3-carboxamide]", "values": [{"measurement": "IC50", "setting": "EBC-1 cells", "value": 13, "unit": "nM"}, {"measurement": "IC50", "setting": "kinase c-MET", "value": 26, "unit": "nM"}]}
{"compound": "COc1cc2nccc(Oc3ccc(NC(=O)c4cn(C)c(C#N)c(-c5ccc(F)cc5)c4=O)cc3F)c2cc1OC", "note": "[Example 21, 6-cyano-N-(4-((6,7-dimethoxyquinolin-4-yl)oxy)-3-fluoro-phenyl)-5-(4-fluorophenyl)-1-methyl-4-oxo-1,4-dihydropyridine-3-carboxamide]", "values": [{"measurement": "IC50", "setting": "EBC-1 cells", "value": 109, "unit": "nM"}]}
